Source: US9902728B2, “Pyrrolo and pyrazolopyrimidines as ubiquitin-specific protease 7 inhibitors” (Forma Therapeutics, Inc., priority 2014, dated 2018)

target: T1, USP7 (Homo sapiens, UniProt Q93009); assay: USP7 Assay A (Ubitquin-Rhodamine 110 Assay); format: biochemical; conditions: USP7_IC50, USP7 activity in USP7 assay A and B (table does not say which assay per compound)
T1 construct: USP7, construct USP7 (208-1102) 6*His, Viva Biotech; 6xHis (C); purchased Viva Biotech
How it was run: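 Ub-Rh110 cleavage in 20 mM Tris-HCl pH 8.0 with 1 mM GSH, 0.03% BGG, 0.01% Triton X-100; compound preincubated with enzyme 30 min before substrate.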

T1 sequence (Q93009 208-1102): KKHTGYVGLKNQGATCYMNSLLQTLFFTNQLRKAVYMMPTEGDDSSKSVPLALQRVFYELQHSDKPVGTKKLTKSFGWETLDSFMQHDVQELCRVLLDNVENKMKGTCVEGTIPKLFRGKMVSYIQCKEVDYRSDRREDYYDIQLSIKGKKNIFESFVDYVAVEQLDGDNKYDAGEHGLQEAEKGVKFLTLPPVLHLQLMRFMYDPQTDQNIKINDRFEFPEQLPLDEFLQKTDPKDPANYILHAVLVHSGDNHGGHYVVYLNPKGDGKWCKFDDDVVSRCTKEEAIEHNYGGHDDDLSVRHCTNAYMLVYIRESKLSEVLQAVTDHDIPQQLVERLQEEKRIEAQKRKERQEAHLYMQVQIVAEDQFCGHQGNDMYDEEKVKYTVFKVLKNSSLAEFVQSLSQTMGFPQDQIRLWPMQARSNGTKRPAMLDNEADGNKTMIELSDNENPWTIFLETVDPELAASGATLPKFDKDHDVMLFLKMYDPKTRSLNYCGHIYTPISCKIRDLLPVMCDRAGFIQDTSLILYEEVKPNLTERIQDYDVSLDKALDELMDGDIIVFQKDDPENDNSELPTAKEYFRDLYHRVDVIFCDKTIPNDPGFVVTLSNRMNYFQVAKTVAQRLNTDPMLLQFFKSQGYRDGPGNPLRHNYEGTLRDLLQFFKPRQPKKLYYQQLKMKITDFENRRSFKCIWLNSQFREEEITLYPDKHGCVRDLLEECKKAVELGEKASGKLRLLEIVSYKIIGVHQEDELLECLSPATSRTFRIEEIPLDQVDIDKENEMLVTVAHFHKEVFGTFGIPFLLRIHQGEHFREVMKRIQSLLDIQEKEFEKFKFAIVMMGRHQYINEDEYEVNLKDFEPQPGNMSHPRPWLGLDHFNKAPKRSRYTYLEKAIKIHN

With CC1(C(=O)N2CCC(O)(Cn3cnc4c(cnn4-c4cccc(N5CC6CC(C5)O6)c4)c3=O)CC2)CC1 [Compound I-1692] the IC50 was < 200 nM.

same assay, conditions: USP7 activity in USP7 assay A and B (table does not say which assay per compound); read-out: USP7_IC50

Compared with CC1(C(=O)N2CCC(O)(Cn3cnc4c(cnn4-c4cccc(N5CC(F)C5)c4)c3=O)CC2)CC1 [Compound I-1680], C[C@@H]1CN(c2cccc(-n3ncc4c(=O)n(CC5(O)CCN(C(=O)C6(C)CC6)CC5)cnc43)c2)CCN1C [Compound I-1689] is lower in IC50: 200 to 1000 nM for the first, < 200 nM for the second.

CN1CC2CCC(C1)N2c1ccc(C(=O)N2CCC(O)(Cn3cnc4c(cnn4-c4ccc(F)cc4)c3=O)CC2)cc1 [Compound I-1681] and O=C(c1ccc(N2CCN3CCC2CC3)cc1)N1CCC(O)(Cn2cnc3c(cnn3-c3ccc(F)cc3)c2=O)CC1 [Compound I-1682] fall in the same range of IC50: 1000 to 10000 nM for the first, 1000 to 10000 nM for the second.

O=C(c1ccc(N2CCCN3CCCC3C2)cc1)N1CCC(O)(Cn2cnc3c(cnn3-c3ccc(F)cc3)c2=O)CC1 (centres unmarked) [Compound I-1683] and O=C(c1ccc(N2CCN3CCCC3C2)cc1)N1CCC(O)(Cn2cnc3c(cnn3-c3ccc(F)cc3)c2=O)CC1 (centres unmarked) [Compound I-1735] fall in the same range of IC50: 1000 to 10000 nM for the first, 1000 to 10000 nM for the second.

O=C(c1cnc(C2CC2)o1)N1CCC(O)(Cn2cnc3c(cnn3-c3ccc(-n4cc(CO)cn4)cc3)c2=O)CC1 [Compound I-1684] and O=C(c1cnc(C2CC2)o1)N1CCC(O)(Cn2cnc3c(cnn3-c3ccc(-n4cc(Cl)cn4)cc3)c2=O)CC1 [Compound I-1686] cannot be ordered by IC50: < 200 nM for the first, < 200 nM for the second.

O=C(c1cnc(C2CC2)o1)N1CCC(O)(Cn2cnc3c(cnn3-c3ccc(-n4cc(C(F)(F)F)cn4)cc3)c2=O)CC1 [Compound I-1685] and Cc1ncc(C(=O)N2CCC(O)(Cn3cnc4c(cnn4-c4ccc(-n5cc(C(F)(F)F)cn5)cc4)c3=O)CC2)o1 [Compound I-1688] cannot be ordered by IC50: < 200 nM for the first, < 200 nM for the second.

Cc1ncc(C(=O)N2CCC(O)(Cn3cnc4c(cnn4-c4ccc(-n5cc(CO)cn5)cc4)c3=O)CC2)o1 [Compound I-1687] and Cc1ncc(C(=O)N2CCC(O)(Cn3cnc4c(cnn4-c4ccc(-n5cc(Cl)cn5)cc4)c3=O)CC2)o1 [Compound I-1733] cannot be ordered by IC50: < 200 nM for the first, < 200 nM for the second.

First: CN1CCN(c2cccc(-n3ncc4c(=O)n(CC5(O)CCN(C(=O)C6(C)CC6)CC5)cnc43)c2)CC1 [Compound I-1690]
Second: COCCN1CCN(c2cccc(-n3ncc4c(=O)n(CC5(O)CCN(C(=O)C6(C)CC6)CC5)cnc43)c2)CC1 [Compound I-1750]
The IC50 of the first is lower: < 200 nM for the first, 200 to 1000 nM for the second.

CC1(C(=O)N2CCC(O)(Cn3cnc4c(cnn4-c4cccc(N5CCC(C6COC6)CC5)c4)c3=O)CC2)CC1 [Compound I-1691] and CC1(C(=O)N2CCC(O)(Cn3cnc4c(cnn4-c4cccc(N5CCN(C6COC6)CC5)c4)c3=O)CC2)CC1 [Compound I-1700] fall in the same range of IC50: 200 to 1000 nM for the first, 200 to 1000 nM for the second.

First: CN1CCN(c2ccc(-n3ncc4c(=O)n(CC5(O)CCN(C(=O)C6(C)CC6)CC5)cnc43)cc2)CC1C(F)F (centres unmarked) [Compound I-1693]
Second: CN1CCN(c2cccc(-n3ncc4c(=O)n(CC5(O)CCN(C(=O)C6(C)CC6)CC5)cnc43)c2)CC1C(F)F (centres unmarked) [Compound I-1694]
The IC50 of the first is higher: 200 to 1000 nM for the first, < 200 nM for the second. The second is the more potent here.

Compared with CC1(C(=O)N2CCC(O)(Cn3cnc4c(cnn4-c4ccc(N5CCN(C6COC6)CC5)cc4)c3=O)CC2)CC1 [Compound I-1701], CC1(C(=O)N2CCC(O)(Cn3cnc4c(cnn4-c4ccc(N5CCC6(CC5)COC6)cc4)c3=O)CC2)CC1 [Compound I-1716] is lower in IC50: 200 to 1000 nM for the first, < 200 nM for the second.

CC(=O)N1C[C@@H]2C[C@H]1CN2c1cccc(-n2ncc3c(=O)n(CC4(O)CCN(C(=O)C5(C)CC5)CC4)cnc32)c1 [Compound I-1702] and CC(=O)N1CC2CC1CN2c1cccc(-n2ncc3c(=O)n(CC4(O)CCN(C(=O)C5(C)CC5)CC4)cnc32)c1 (centres unmarked) [Compound I-1748] fall in the same range of IC50: 200 to 1000 nM for the first, 200 to 1000 nM for the second.

First: Cc1ccn(-c2ccc(-n3ncc4c(=O)n(CC5(O)CCN(C(=O)C6(C)CC6)CC5)cnc43)cc2)n1 [Compound I-1710]
Second: Cc1ccn(-c2ccc(-n3ncc4c(=O)n(CC5(O)CCN(C(=O)C6(C)COC6)CC5)cnc43)cc2)n1 [Compound I-1711]
The IC50 of the first is lower: 200 to 1000 nM for the first, 1000 to 10000 nM for the second. The first is the more potent here.

First: CC1(C(=O)N2CCC(O)(Cn3cnc4c(cnn4-c4ccc(-n5cc(C(F)(F)F)cn5)cc4)c3=O)CC2)CCC1 [Compound I-1717]
Second: CC1(C(=O)N2CCC(O)(Cn3cnc4c(cnn4-c4ccc(-n5ccc(F)n5)cc4)c3=O)CC2)CC1 [Compound I-1754]
The IC50 of the first is lower: < 200 nM for the first, 200 to 1000 nM for the second. The first is the more potent here.

First: CC1(C(=O)N2CCC(O)(Cn3cnc4c(cnn4-c4ccc(N5CCC6(CC5)CC(F)(F)C6)cc4)c3=O)CC2)CCC1 [Compound I-1718]
Second: CC1(C(=O)N2CCC(O)(Cn3cnc4c(cnn4-c4ccc(N5CCC(F)(F)CC5)cc4)c3=O)CC2)CC1 [Compound I-1728]
The IC50 of the first is lower: < 200 nM for the first, 200 to 1000 nM for the second.

CC1(C(=O)N2CCC(O)(Cn3cnc4c(cnn4-c4ccc(-c5cnn(C6CCOCC6)c5)cc4)c3=O)CC2)CCC1 [Compound I-1719] and CC1(C(=O)N2CCC(O)(Cn3cnc4c(cnn4-c4ccc(-c5cnn(C6CCOCC6)c5)cc4)c3=O)CC2)CC1 [Compound I-1722] cannot be ordered by IC50: < 200 nM for the first, < 200 nM for the second.

Compared with CC1(C(=O)N2CCC(O)(Cn3cnc4c(cnn4-c4ccc(-c5cnn(C6CC6)c5)cc4)c3=O)CC2)CCC1 [Compound I-1720], CC1(C(=O)N2CCC(O)(Cn3cnc4c(cnn4-c4ccc(-c5cnn(C6CC6)c5)cc4)c3=O)CC2)CC1 [Compound I-1723] is higher in IC50: < 200 nM for the first, 200 to 1000 nM for the second. The first is the more potent here.

First: CC1(C(=O)N2CCC(O)(Cn3cnc4c(cnn4-c4ccc(-c5cnn(C(F)F)c5)cc4)c3=O)CC2)CCC1 [Compound I-1721]
Second: CC1(C(=O)N2CCC(O)(Cn3cnc4c(cnn4-c4ccc(N5CCC(C#N)CC5)cc4)c3=O)CC2)CC1 [Compound I-1752]
The IC50 of the first is lower: < 200 nM for the first, 200 to 1000 nM for the second.

First: Cc1ccnc(-c2ccc(-n3ncc4c(=O)n(CC5(O)CCN(C(=O)C6CC6)CC5)cnc43)cc2)c1 [Compound I-1725]
Second: Cc1ccc(-c2ccc(-n3ncc4c(=O)n(CC5(O)CCN(C(=O)C6CC6)CC5)cnc43)cc2)nc1 [Compound I-1726]
The IC50 of the first is higher: 1000 to 10000 nM for the first, 200 to 1000 nM for the second. The second is the more potent here.

O=C(C1CC1)N1CCC(O)(Cn2cnc3c(cnn3-c3ccc(N4CCCc5ncccc54)cc3)c2=O)CC1 [Compound I-1727] and O=C(C1CC1)N1CCC(O)(Cn2cnc3c(cnn3-c3ccc(N4CCC5(CC4)CC5)cc3)c2=O)CC1 [Compound I-1755] fall in the same range of IC50: 1000 to 10000 nM for the first, 1000 to 10000 nM for the second.

Compared with O=C(c1ccc(F)cc1)N1CCC(O)(Cn2cnc3c(cnn3-c3ccc(N4CCCc5cnccc54)cc3)c2=O)CC1 [Compound I-1729], O=C(c1ccc(F)cc1)N1CCC(O)(Cn2cnc3c(cnn3-c3ccc(-n4cc(CO)cn4)cc3)c2=O)CC1 [Compound I-1734] is lower in IC50: 1000 to 10000 nM for the first, 200 to 1000 nM for the second. The second is the more potent here.

CC1(C(=O)N2CCC(O)(Cn3cnc4c(cnn4-c4cccc(N5CC(C6CCOCC6)C5)c4)c3=O)CC2)CC1 [Compound I-1732] and CC1(C(=O)N2CCC(O)(Cn3cnc4c(cnn4-c4cccc(N5CCC(C#N)CC5)c4)c3=O)CC2)CC1 [Compound I-1751] fall in the same range of IC50: 200 to 1000 nM for the first, 200 to 1000 nM for the second.

First: O=C(C1CC1)N1CCC(O)(Cn2cnc3c(cnn3-c3ccc(-c4cnn5ccccc45)cc3)c2=O)CC1 [Compound I-1736]
Second: O=C(C1CC1)N1CCC(O)(Cn2cnc3c(cnn3-c3ccc(-c4cccc5oncc45)cc3)c2=O)CC1 [Compound I-1738]
The IC50 of the first is lower: 200 to 1000 nM for the first, 1000 to 10000 nM for the second.

O=C(C1CC1)N1CCC(O)(Cn2cnc3c(cnn3-c3ccc(-c4cncc(C(F)(F)F)c4)cc3)c2=O)CC1 [Compound I-1737] and Cn1ncc2ccc(-c3ccc(-n4ncc5c(=O)n(CC6(O)CCN(C(=O)C7CC7)CC6)cnc54)cc3)cc21 [Compound I-1764] fall in the same range of IC50: 1000 to 10000 nM for the first, 1000 to 10000 nM for the second.

First: O=C(C1CC1)N1CCC(O)(Cn2cnc3c(cnn3-c3ccc(N4CCC5(CC4)CC(O)C5)cc3)c2=O)CC1 [Compound I-1739]
Second: O=C(C1CC1)N1CCC(O)(Cn2cnc3c(cnn3-c3ccc(N4CCC5(CC4)CC(CO)C5)cc3)c2=O)CC1 [Compound I-1741]
The IC50 of the first is higher: 1000 to 10000 nM for the first, 200 to 1000 nM for the second. The second is the more potent here.

O=C(c1ccc(F)cc1)N1CCC(O)(Cn2cnc3c(cnn3-c3ccc(N4CCC5(CC4)CC(CO)C5)cc3)c2=O)CC1 [Compound I-1740] and CC1(COc2ccc(-n3ncc4c(=O)n(CC5(O)CCN(C(=O)c6ccc(F)cc6)CC5)cnc43)cc2)COC1 [Compound I-1756] fall in the same range of IC50: 200 to 1000 nM for the first, 200 to 1000 nM for the second.

O=C(c1ccc(F)cc1)N1CCC(O)(Cn2cnc3c(cnn3-c3ccc(-c4cnn(C5CCS(=O)(=O)CC5)c4)cc3)c2=O)CC1 [Compound I-1744] and O=C(c1ccc(F)cc1)N1CCC(O)(Cn2cnc3c(cnn3-c3ccc(-c4cnn(C5CC5)c4)cc3)c2=O)CC1 [Compound I-1746] fall in the same range of IC50: 200 to 1000 nM for the first, 200 to 1000 nM for the second.

O=C(c1ccc(F)cc1)N1CCC(O)(Cn2cnc3c(cnn3-c3ccc(-c4cnn(C5CS(=O)(=O)C5)c4)cc3)c2=O)CC1 [Compound I-1745] and O=C(C1CC1)N1CCC(O)(Cn2cnc3c(cnn3-c3ccc(-c4ccc5[nH]ccc5n4)cc3)c2=O)CC1 [Compound I-1768] fall in the same range of IC50: 200 to 1000 nM for the first, 200 to 1000 nM for the second.

CC(=O)N1C[C@@H]2C[C@H]1CN2c1ccc(-n2ncc3c(=O)n(CC4(O)CCN(C(=O)C5(C)CC5)CC4)cnc32)cc1 [Compound I-1747] and CC(=O)N1CC2CC1CN2c1ccc(-n2ncc3c(=O)n(CC4(O)CCN(C(=O)C5(C)CC5)CC4)cnc32)cc1 (centres unmarked) [Compound I-1749] fall in the same range of IC50: 200 to 1000 nM for the first, 200 to 1000 nM for the second.

Work on Cn1ncc2c(=O)n(CC3(O)CCN(C(=O)CC(C(F)F)n4ccc(F)n4)CC3)cnc21 (centres unmarked) [Compound I-1753] yielded an IC50 of 200 to 1000 nM.

same assay, conditions: USP7 assay A and B (table does not say which assay per compound); read-out: USP7_IC50

Compared with O=C(Nc1cccnc1)N1CCC(O)(Cn2cnc3c(cnn3-c3ccc(F)cc3)c2=O)CC1 [Compound I-1708], CC1(C(=O)N2CCC(O)(Cn3cnc4c(cnn4-c4ccc(-c5cnn(C(F)F)c5)cc4)c3=O)CC2)CC1 [Compound I-1800] is lower in IC50: 1000 to 10000 nM for the first, < 200 nM for the second.

First: CC1(C(=O)N2CCC(O)(Cn3cnc4c(cnn4-c4ccc(OC5CC(F)(F)C5)cc4)c3=O)CC2)CC1 [Compound I-1801]
Second: O=C(C1CC1)N1CCC(O)(Cn2cnc3c(cnn3-c3cccc(-c4cnc(N5CCOCC5)nc4)c3)c2=O)CC1 [Compounds I-401]
The IC50 of the first is lower: < 200 nM for the first, 1000 to 10000 nM for the second. The first is the more potent here.
